Here are results for two compounds from article PMC8725448 (Journal of Cannabis Research, 2022).

“Also recorded” adds a separate entry of the source. Where two headings read alike, the source gives them in different places.

The target of one data set is T1, CaV3.3 (Homo sapiens, UniProt Q9P0X4).
T1 construct: expressed in transfected cells; host or cells: Flp-In T-REx HEK (tetracycline-induced)
The data set can be described thus: Measurement of intracellular calcium, CaV3.3. The data set is classed as cell-based. Conditions: 10 μM; HEK293 cells expressing human CaV3.3. As for the experimental part: (§1) Changes in intracellular calcium concentrations were measured in Flp-In™ T-REx™ HEK stably expressing either CaV3.1, CaV3.2, or CaV3.3 using Calcium 5 dye (Molecular Devices; Sunnyvale, USA) as previously described (Bladen et al. [2021]). Briefly, cells (120,000/well) were plated into a black, clear-bottomed poly-D-lysine coated, 96-well plate in the presence of 2 μg/mL tetracycline to induce channel expression and incubated overnight at 37°C in ambient CO2. Calcium 5 dye was diluted in HEPES-buffered low potassium Hanks Balanced Salt Solution (HBSS) at 50% of manufacturer’s recommendation. Dye solution containing probenecid (2.5 mM) was added and incubated for 60 min at 37°C in ambient CO2. Compounds were prepared as stock solutions in DMSO and diluted in HBSS with 0.01% bovine serum albumin. Compounds were applied for 5 min, then 10 mM CaCl2 was added. A FlexStation 3 Microplate reader (Molecular Devices; San Jose, USA) was used to take fluorescence readings every 2 s (excitation 485 nm, emission 525 nm). Baseline recordings were taken as the average fluorescence over 20 s preceding CaCl2 addition. Changes in fluorescence were measured as the maximal increase in fluorescence from baseline following CaCl2 addition and normalized to the response of vehicle. CaCl2 addition produced no effect in non-induced cells (Supplemental Fig. 2). Final drug concentrations had ≤ 0.1% DMSO. […]
On the technique in general: A change in cytosolic calcium serves as a functional read-out for many receptors and channels.

The next data set addresses T2, CaV3.2 (Homo sapiens, UniProt O95180).
T2 construct: expressed in transfected cells; host or cells: Flp-In T-REx HEK (tetracycline-induced)
The data set can be described thus: Measurement of intracellular calcium, CaV3.2. It counts as cell-based. Conditions: 10 μM; HEK293 cells expressing human CaV3.2. As for the experimental part:
as §1, with “vehicle.” for “vehicle. CaCl2 addition produced no effect in non-induced cells (Supplemental Fig. 2). Final drug concentrations had ≤ 0.1% DMSO.”

Data set [1] is described as follows: Pharmacokinetic analysis in mouse plasma and brain after i.p. injection. It counts as in vivo. Conditions: for Kp: brain/plasma; for Kp / Cmax / AUC / Tmax / half-life: 10 mg/kg, mouse; for Kp / Cmax: i.p. Here is the method:
Wildtype mice (postnatal day 21-28, P21-28) received an i.p. injection of 10 mg/kg CBGA methyl ester or olivetolic acid. At selected time points (15–120 min) mice were anesthetized with isoflurane, whole blood was collected by cardiac puncture and brains were harvested. The plasma was isolated by centrifugation and samples were stored at −80°C until assayed. Concentrations in the plasma and brain samples at each time point were averaged, and pharmacokinetic parameters were calculated by noncompartmental analysis as previously described (Hawkins et al. [2017]).
The plasma and brain samples were prepared for LC-MS/MS analysis as previously described (Anderson et al. [2019b], [2020]). Briefly, acetonitrile was used to precipitate proteins and extract CBGA methyl ester and olivetolic acid from the biological matrices. The brain samples were additionally filtered through Amicon Ultracel 3K (Merck-Millipore; Burlington, USA) filtration devices. The plasma and brain samples underwent supported-liquid extraction with methyl tert-butyl ether using Biotage Isolute SLE+ columns (Uppsala, SWE) and were then evaporated to dryness with N2. Residues were reconstituted in actetonitrile and 0.1% formic acid in water (1:1, v/v) for analysis using a Shimadzu Nexera ultra-HPLC coupled to a Shimadzu 8030 triple quadrupole mass spectrometer (Shimadzu Corp.; Kyoto, JPN). The mass spectrometer was operated in positive electrospray ionization mode for CBGA methyl ester and negative electrospray ionization mode for olivetolic acid with multiple reaction monitoring and the following mass transition pairs (m/z): 375.20 > 343.25, 375.20 > 219.10 and 375.20 > 251.15 (CBGA-methylester) and 223.25 > 179.25 (olivetolic acid). Quantification of analytes in the plasma and brain samples was achieved by comparing samples to standards prepared with known amounts of compound.

A further data set addresses T3, human GPR55 (Homo sapiens, UniProt Q9Y2T6).
T3 construct: expressed in transfected cells; host or cells: HEK293
Briefly: GPR55 pERK assay (AlphaScreen SureFire Phospho-ERK1/2). The data set is classed as cell-based. The conditions noted are these: 10 μM; LPI at EC80; HEK293 cells expressing human GPR55. Here is the method:
ERK phosphorylation (pERK) was detected using the AlphaScreen® SureFire® Phospho-ERK1/2 assay (Perkin Elmer; Waltham, USA) as previously described (Anderson et al. [2021b]). Briefly, the human embryonic kidney (HEK) 293 cells stably expressing human GPR55 in L-15 media were plated (110,000/well) into a Corning CellBIND (Corning Inc; Corning, USA) clear, flat-bottomed 96-well plate and incubated 20–24 h at 37°C in ambient CO2. Media was aspirated, 50 μL phenol red-free DMEM/F-12 was added to each well and incubated for 2–3 h at 37°C in a humidified 5% CO2 atmosphere. Compounds (10 μM in phenol red-free DMEM/F-12) were added and incubated for 20 min before media was aspirated and lysis buffer was added. Lysates (5 μL) were incubated with reaction mixture (7 μL) for 3.5 h at room temperature. A CLARIOstar plate reader (BMG Labtech; Offenburg, GER) was used to take fluorescence readings over 740 msec (excitation 680 nm, emission 520–620 nm). Fluorescence readings were normalized to those of 4 μM LPI, the endogenous GPR55 agonist. […] Final DMSO concentrations were ≤ 0.2%. Statistical comparisons were made in GraphPad Prism using one-way ANOVA followed by Dunnett’s post hoc and p < 0.05 was considered statistically significant.
(In general: Bead proximity is the source of the signal in Alpha formats.)

Where [2] appears, read: intraperitoneal, read-out: brain penetration.
Setting [3] is: ip, from AUC values, read-out: Brain-plasma ratio.
Where [4] appears, read: ip, brain, converted from ng/mg brain assuming density of 1 g/mL, read-out: Cmax.

T3 sequence (Q9Y2T6 whole entry): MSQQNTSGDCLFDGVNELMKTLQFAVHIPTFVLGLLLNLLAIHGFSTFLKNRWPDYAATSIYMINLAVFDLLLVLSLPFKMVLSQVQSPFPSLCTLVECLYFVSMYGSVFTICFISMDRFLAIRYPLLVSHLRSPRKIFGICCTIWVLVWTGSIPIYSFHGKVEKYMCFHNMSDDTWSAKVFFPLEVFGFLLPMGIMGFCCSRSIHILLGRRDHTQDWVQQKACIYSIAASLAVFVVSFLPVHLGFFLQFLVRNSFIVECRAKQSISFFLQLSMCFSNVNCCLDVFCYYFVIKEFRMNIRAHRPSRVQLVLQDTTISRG
T1 sequence (Q9P0X4 whole entry): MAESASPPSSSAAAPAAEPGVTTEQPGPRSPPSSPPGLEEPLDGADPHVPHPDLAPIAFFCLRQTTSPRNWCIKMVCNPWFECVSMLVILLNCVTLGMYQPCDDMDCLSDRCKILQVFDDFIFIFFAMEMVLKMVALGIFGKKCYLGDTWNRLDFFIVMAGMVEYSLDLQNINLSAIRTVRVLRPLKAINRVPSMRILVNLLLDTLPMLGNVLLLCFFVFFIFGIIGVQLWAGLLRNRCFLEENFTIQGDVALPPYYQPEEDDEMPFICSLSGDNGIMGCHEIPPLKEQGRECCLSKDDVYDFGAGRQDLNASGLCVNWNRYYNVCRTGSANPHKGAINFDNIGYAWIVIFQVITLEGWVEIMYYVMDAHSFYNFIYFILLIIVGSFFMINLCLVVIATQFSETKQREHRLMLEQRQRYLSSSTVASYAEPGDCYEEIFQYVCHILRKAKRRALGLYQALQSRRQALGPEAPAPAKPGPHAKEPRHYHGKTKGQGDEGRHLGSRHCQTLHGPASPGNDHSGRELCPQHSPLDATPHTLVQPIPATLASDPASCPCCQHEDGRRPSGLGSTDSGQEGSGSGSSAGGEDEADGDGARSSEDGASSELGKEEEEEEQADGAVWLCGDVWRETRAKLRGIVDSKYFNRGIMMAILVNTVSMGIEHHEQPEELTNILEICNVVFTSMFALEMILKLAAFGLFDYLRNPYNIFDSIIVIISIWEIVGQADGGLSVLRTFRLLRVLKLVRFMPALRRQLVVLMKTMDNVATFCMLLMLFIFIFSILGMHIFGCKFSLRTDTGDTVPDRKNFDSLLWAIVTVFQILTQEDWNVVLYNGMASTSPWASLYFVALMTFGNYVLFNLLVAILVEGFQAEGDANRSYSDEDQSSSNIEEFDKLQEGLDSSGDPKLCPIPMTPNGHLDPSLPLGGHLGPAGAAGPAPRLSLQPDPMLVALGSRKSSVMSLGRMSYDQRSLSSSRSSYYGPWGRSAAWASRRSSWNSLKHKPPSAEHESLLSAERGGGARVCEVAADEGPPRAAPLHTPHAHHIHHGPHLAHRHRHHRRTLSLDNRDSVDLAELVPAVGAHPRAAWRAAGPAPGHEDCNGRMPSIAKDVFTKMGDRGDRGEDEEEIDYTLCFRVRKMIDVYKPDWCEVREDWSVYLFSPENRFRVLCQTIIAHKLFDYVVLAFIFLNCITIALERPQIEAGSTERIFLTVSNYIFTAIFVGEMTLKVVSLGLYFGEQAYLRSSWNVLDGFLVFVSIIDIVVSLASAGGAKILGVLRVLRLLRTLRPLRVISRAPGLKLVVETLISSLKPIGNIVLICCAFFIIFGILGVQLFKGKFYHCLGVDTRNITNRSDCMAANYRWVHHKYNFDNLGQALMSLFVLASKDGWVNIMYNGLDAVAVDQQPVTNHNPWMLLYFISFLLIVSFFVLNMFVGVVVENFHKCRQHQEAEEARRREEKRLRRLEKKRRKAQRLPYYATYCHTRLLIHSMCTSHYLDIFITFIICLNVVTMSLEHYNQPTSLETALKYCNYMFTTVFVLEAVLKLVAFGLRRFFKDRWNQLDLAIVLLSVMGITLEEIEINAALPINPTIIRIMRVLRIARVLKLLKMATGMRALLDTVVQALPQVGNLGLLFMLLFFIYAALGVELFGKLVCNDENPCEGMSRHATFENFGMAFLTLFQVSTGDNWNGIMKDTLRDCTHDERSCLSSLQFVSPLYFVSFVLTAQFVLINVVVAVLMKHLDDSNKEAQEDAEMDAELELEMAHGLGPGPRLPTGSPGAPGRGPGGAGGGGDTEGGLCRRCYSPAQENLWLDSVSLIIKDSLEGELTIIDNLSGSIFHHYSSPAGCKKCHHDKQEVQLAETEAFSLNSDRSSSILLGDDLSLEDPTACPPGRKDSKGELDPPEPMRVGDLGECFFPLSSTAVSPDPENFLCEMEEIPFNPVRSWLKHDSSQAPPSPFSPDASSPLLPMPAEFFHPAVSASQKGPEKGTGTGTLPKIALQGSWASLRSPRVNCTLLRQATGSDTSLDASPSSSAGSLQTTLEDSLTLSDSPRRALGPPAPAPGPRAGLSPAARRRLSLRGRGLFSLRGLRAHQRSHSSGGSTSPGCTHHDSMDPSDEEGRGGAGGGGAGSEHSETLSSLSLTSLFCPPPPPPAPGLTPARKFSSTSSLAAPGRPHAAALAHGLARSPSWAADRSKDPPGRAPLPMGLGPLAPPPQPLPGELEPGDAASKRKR
T2 sequence (O95180 whole entry): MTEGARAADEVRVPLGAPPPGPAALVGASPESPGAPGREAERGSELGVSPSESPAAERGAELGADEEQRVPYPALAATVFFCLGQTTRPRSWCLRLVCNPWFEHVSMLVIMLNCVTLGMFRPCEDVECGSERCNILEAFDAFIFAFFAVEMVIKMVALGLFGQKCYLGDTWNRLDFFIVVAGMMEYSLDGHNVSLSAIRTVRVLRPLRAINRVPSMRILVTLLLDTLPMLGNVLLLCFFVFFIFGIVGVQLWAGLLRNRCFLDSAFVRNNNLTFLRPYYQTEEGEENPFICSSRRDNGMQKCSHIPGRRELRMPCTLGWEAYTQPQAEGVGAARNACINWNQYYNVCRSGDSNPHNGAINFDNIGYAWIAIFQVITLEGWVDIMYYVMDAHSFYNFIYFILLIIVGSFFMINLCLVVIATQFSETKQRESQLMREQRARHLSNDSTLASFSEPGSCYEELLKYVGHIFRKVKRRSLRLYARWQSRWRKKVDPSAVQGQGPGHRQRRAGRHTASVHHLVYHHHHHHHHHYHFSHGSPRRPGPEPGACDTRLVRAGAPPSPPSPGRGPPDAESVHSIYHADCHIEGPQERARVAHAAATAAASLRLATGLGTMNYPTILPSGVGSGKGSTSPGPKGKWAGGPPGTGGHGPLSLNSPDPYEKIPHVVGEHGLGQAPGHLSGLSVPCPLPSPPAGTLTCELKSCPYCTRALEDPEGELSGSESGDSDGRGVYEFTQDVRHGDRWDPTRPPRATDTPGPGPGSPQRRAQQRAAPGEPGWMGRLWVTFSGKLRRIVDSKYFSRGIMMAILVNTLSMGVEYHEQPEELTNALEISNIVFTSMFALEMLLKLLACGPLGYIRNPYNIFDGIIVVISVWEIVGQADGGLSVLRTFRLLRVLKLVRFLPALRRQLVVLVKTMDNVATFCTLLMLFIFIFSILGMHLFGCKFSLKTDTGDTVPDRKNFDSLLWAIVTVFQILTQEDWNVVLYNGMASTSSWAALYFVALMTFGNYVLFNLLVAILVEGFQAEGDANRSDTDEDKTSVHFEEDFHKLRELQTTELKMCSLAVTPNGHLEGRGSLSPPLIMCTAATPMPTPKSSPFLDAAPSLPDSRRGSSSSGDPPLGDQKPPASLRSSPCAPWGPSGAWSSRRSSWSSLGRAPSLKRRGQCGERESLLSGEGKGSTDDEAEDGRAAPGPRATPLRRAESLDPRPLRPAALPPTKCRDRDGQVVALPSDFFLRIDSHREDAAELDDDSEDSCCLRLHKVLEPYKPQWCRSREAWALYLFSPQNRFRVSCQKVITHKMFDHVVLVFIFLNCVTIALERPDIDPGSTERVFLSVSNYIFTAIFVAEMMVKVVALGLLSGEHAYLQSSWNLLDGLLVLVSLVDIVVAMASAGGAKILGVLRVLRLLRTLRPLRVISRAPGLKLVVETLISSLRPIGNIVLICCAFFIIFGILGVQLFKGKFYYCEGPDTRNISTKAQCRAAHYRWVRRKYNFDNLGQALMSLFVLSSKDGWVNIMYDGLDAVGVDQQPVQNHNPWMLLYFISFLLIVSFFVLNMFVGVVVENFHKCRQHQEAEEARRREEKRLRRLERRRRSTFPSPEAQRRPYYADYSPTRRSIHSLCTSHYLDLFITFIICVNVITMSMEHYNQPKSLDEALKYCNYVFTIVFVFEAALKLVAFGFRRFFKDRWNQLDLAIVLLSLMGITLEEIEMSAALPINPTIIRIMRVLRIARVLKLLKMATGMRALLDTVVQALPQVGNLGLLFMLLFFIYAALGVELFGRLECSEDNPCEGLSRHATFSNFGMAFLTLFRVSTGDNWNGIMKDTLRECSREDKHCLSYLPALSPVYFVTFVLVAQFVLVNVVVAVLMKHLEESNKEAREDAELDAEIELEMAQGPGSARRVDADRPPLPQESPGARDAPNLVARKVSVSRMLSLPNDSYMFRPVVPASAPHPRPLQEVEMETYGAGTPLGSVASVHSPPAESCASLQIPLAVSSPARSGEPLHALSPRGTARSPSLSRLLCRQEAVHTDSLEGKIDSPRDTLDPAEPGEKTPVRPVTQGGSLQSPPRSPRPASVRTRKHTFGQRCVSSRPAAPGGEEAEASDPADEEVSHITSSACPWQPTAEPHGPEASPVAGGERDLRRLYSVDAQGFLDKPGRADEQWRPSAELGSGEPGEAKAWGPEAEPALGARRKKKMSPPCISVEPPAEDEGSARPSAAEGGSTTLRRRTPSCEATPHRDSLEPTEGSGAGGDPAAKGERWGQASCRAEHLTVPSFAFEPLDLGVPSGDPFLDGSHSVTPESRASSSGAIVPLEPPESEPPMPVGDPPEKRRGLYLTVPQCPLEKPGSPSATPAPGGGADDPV

In general, AUC refers to concentration integrated over time. Lower therefore signals low exposure. By Tmax is commonly meant the time from dosing to the highest level. A word on the half-life: it is the time in which the quantity being followed falls by half. A higher half-life goes with slow decline. For the compound `CCCCCc1cc(O)cc(O)c1C(=O)O` [Olivetolic acid], on CaV3.3, the “inhibition of CaV3.3 (change in intracellular calcium relative to vehicle)” value was “Neither CBGA methyl ester nor olivetolic acid had any effect; also recorded: ineffective”. In addition, the “inhibition of CaV3.2 (change in intracellular calcium relative to vehicle)” value on CaV3.2 is “Neither CBGA methyl ester nor olivetolic acid had any effect; also recorded: ineffective”. Further, the Kp in data set [1] (setting [2]) and in data set [1] (setting [3]) was 0.01 throughout. The Cmax in data set [1] (brain) amounted to 0.45 ± 0.06 ng/mg brain; in data set [1] (setting [4]), 450 ± 60 ng/mL; in data set [1] (ip, plasma, read-out: Cmax) it was 65000 ± 4000 ng/mL. Besides, the AUC in data set [1] (ip, brain) is 217 ng·h/mL; in data set [1] (ip, plasma), 18400 ng·h/mL. Besides, the time to peak (Tmax) in data set [1] (ip, brain) is 15 min; in data set [1] (ip, plasma) it was 15 min. Besides, the half-life in data set [1] (brain, ip) is below 15 min; in data set [1] (plasma, ip), below 15 min. Also, at human GPR55, the “inhibition of GPR55 activity (pERK relative to agonist LPI alone)” value was “did not inhibit; also recorded: ineffective”.
For the compound `CCCCCc1cc(O)c(C/C=C(\C)CCC=C(C)C)c(O)c1C(=O)OC` [CBGA methyl ester], at CaV3.3, the “inhibition of CaV3.3 (change in intracellular calcium relative to vehicle)” value is listed as “Neither CBGA methyl ester nor olivetolic acid had any effect; also recorded: no effect”. In addition, the “inhibition of CaV3.2 (change in intracellular calcium relative to vehicle)” value on CaV3.2 is on record as “Neither CBGA methyl ester nor olivetolic acid had any effect; also recorded: no effect”. Moreover, the Kp in data set [1] (setting [2]) and in data set [1] (setting [3]) was 0.13 throughout. Further, the “improvement of brain-plasma ratio over CBGA” value in data set [1] (compared with CBGA of Anderson et al. 2019b) is on record as “nearly a seven fold improvement”. Further, the Cmax worked out at 210 ± 30 ng/mL in data set [1] (setting [4]) and 1300 ± 300 ng/mL in data set [1] (ip, plasma, read-out: Cmax). The AUC in data set [1] (ip, brain) was 367 ng·h/mL; in data set [1] (ip, plasma), 2850 ng·h/mL. Also, the Tmax in data set [1] (ip, brain) is 30 min; in data set [1] (ip, plasma) it was 45 min. Further, the half-life is 62 min in data set [1] (brain, ip) and 81 min in data set [1] (plasma, ip). The “inhibition of GPR55 activity (pERK relative to agonist LPI alone)” value at human GPR55 is “did not inhibit; also recorded: no effect”.
